Values of other authors, collected in EP3796908B1, “CONTROLLED RELEASE PROPIVERINE FORMULATIONS” (Santa Farma Ilaç Sanayi A.S., priority 2018, dated 2020).
Where two headings read alike, the source gives them in different places.

Columns and labels:
[1] = for maximal plasma concentrations reached after / mean absolute bioavailability: oral administration
[2] = BCS classification
[3] = administration of the ER capsule

## CCCOC(C(=O)OC1CCN(C)CC1)(c1ccccc1)c1ccccc1 [propiverine, 1-methyl-4-piperidyl diphenylpropoxy acetate]
[1]; [3]
  mean Cmax: about 70 ng/ml
  time in which Cmax is reached after administration: ≤ 9.5 h
[1]; immediate release
  maximal plasma concentrations reached after: 2.3 h
  mean absolute bioavailability: 40.5%
[1]; modified release
  maximal plasma concentrations reached after: 9.9 h
  mean absolute bioavailability: 60.8 ± 17.3%
[2]
  solubility: high solubility
